Experimental findings from US20120214822A1 (ASTRAZENECA AB, priority 2007, published 2012) are described below.

Structures are written as SMILES.

A short description of this data set: GVS (Dynamic Vapour Sorption) water uptake of crystalline forms. The class given is physicochemical. The note with it: ±0.2%; for water uptake as measured by GVS: between RH of 0%-80%; for GVS weight increase: at 80% RH. The protocol: GVS profiles were measured using a Dynamic Vapour Sorption DVS-1 instrument. The solid sample ca. 1-5 mg was placed into a glass vessel and the weight of the sample was recorded during a dual cycle step method (40 to 90 to 0 to 90 to 0% relative humidity (RH), in steps of 10% RH).

With `Cc1c(F)cc(C(=O)NC2CC2)cc1-n1ccnc(NC2(c3ccccc3OCCNCCO)CC2)c1=O` [example 260 crystalline form A, N-Cyclopropyl-3-fluoro-5-[3-[[1-[2-[2-[(2-hydroxyethyl)amino]ethoxy]phenyl]cyclopropyl]amino]-2-oxo-1(2H)-pyrazinyl]-4-methyl-benzamide Crystalline Form A], the “water uptake as measured by GVS” value was 1.2%.

`CNCCOc1ccccc1C(C)(C)Nc1nccn(-c2cc(C(=O)NC3CC3)ccc2C)c1=O` [example 163 crystalline form C, N-Cyclopropyl-4-methyl-3-[3-[[1-methyl-1-[2-[2-(methylamino)ethoxy]phenyl]ethyl]amino]-2-oxo-1(2H)-pyrazinyl]-benzamide Crystalline Form C] came in with a GVS weight increase of 0.3 % w/w.

`CNCCOc1ccccc1C(C)(C)Nc1nccn(-c2cc(C(=O)NC3CC3)ccc2C)c1=O` [example 163 crystalline form A, N-Cyclopropyl-4-methyl-3-[3-[[1-methyl-1-[2-[2-(methylamino)ethoxy]phenyl]ethyl]amino]-2-oxo-1(2H)-pyrazinyl]-benzamide Crystalline Form A] yielded a GVS weight increase of 5 % w/w.

As for `CNCCOc1ccccc1C1(Nc2nccn(-c3cc(C(=O)NC4CC4)ccc3C)c2=O)CC1` [example 167 Crystalline Form A, N-Cyclopropyl-4-methyl-3-[3-[[1-[2-[2-(methylamino)ethoxy]phenyl]cyclopropyl]amino]-2-oxo-1(2H)-pyrazinyl]-benzamide Crystalline Form A], the “water uptake as measured by GVS” value stood at 1%.
